Earlier results on 1 molecule are cited in PubChem BioAssay AID1259409 (Chemical Carcinogenesis Research Information System (CCRIS), 2018).

The series deals with rodent chemically induced tumor inhibition, incidence and multiplicity. Nature of the series: CCRIS tumor inhibitor studies. The note with it: Carcinogen: 2,2'-DIHYDROXY-DI-N-PROPYLNITROSAMINE, 53609-64-6, 13147-25-6, Carcinogen: 2,2'-DIHYDROXY-DI-N-PROPYLNITROSAMINE, 53609-64-6, 13147-25-6, Dose [Inhibitor]: 0, Route [Inhibitor]: ORAL, Species: RAT, Strain/Sex: F344/MALE, Promoter: NONE USED.

The structures appear in SMILES notation.

In the case of `O=C(OC[C@@H]1O[C@H](OC(=O)c2cc(O)c(O)c(OC(=O)c3cc(O)c(O)c(O)c3)c2)[C@@H](OC(=O)c2cc(O)c(O)c(OC(=O)c3cc(O)c(O)c(O)c3)c2)[C@H](OC(=O)c2cc(O)c(O)c(OC(=O)c3cc(O)c(O)c(O)c3)c2)[C@H]1OC(=O)c1cc(O)c(O)c(OC(=O)c2cc(O)c(O)c(O)c2)c1)c1cc(O)c(O)c(OC(=O)c2cc(O)c(O)c(O)c2)c1`, the “tumour outcome (control, treated, inhibition, significance)” value by setting is: (N-ETHYL-N-HYDROXYETHYL- NITROSAMINE, 3,2'-DIMETHYL-4-, N-ETHYL-N-HYDROXYETHYL- NITROSAMINE, 3,2'-DIMETHYL-4-, 1% IN DIET BEGINNING 1 WK POST LAST CARCINOGEN DOSE AND CONTINUING FOR 32 WK (STUDY DURATION: 36 WK), Target Tissue: Type of Lesion: LARGE INTESTINE: ADENOMA, Dose [Carcinogen]: 1000 MG/KG IP DHPN 2X, 1500 MG/KG GAV EHEN 2X AND 75 MG/KG SC DMAB GIVEN OVER THE INITIAL 3 WK PERIOD AT 3-4 D INTERVALS) 7/14 (50%), 2/12 (17%), 66%, not calculated; (N-ETHYL-N-HYDROXYETHYL- NITROSAMINE, 3,2'-DIMETHYL-4-, N-ETHYL-N-HYDROXYETHYL- NITROSAMINE, 3,2'-DIMETHYL-4-, 1% IN DIET BEGINNING 1 WK POST LAST CARCINOGEN DOSE AND CONTINUING FOR 32 WK (STUDY DURATION: 36 WK), Target Tissue: Type of Lesion: LARGE INTESTINE: CARCINOMA, Dose [Carcinogen]: 1000 MG/KG IP DHPN 2X, 1500 MG/KG GAV EHEN 2X AND 75 MG/KG SC DMAB 3X GIVEN OVER THE INITIAL 3 WK AT 3-4 D INTERVALS) 3/14 (21%), 1/12 (8%), 62%, not calculated; (N-ETHYL-N-HYDROXYETHYL- NITROSAMINE, 3,2'-DIMETHYL-4-, N-ETHYL-N-HYDROXYETHYL- NITROSAMINE, 3,2'-DIMETHYL-4-, 1% IN DIET BEGINNING 1 WK POST LAST CARCINOGEN DOSE AND CONTINUING FOR 32 WK (STUDY DURATION: 36 WK), Target Tissue: Type of Lesion: LUNG: ADENOMA, Dose [Carcinogen]: 1000 MG/KG IP DHPN 2X, 1500 MG/KG GAV EHEN 2X AND 75 MG/KG SC DMAB 3X GIVEN OVER THE INITIAL 3 WK AT 3-4 D INTERVALS) 7/14 (50%), 7/12 (58%), -16%, not calculated; (N-ETHYL-N-HYDROXYETHYL- NITROSAMINE, 3,2'-DIMETHYL-4-, N-ETHYL-N-HYDROXYETHYL- NITROSAMINE, 3,2'-DIMETHYL-4-, 1% IN DIET BEGINNING 1 WK POST LAST CARCINOGEN DOSE AND CONTINUING FOR 32 WK (STUDY DURATION: 36 WK), Target Tissue: Type of Lesion: LUNG: CARCINOMA, Dose [Carcinogen]: 1000 MG/KG IP DHPN 2X, 1500 MG/KG GAV EHEN 2X AND 75 MG/KG SC DMAB 3X GIVEN OVER THE INITIAL 3 WK PERIOD AT 3-4 D INTERV) 1/14 (7%), 2/12 (17%), -143%, not calculated; (N-ETHYL-N-HYDROXYETHYL- NITROSAMINE, 3,2'-DIMETHYL-4-, N-ETHYL-N-HYDROXYETHYL- NITROSAMINE, 3,2'-DIMETHYL-4-, 1% IN DIET BEGINNING 1 WK POST LAST CARCINOGEN DOSE AND CONTINUING FOR 32 WK (STUDY DURATION: 36 WK), Target Tissue: Type of Lesion: URINARY BLADDER: CARCINOMA, Dose [Carcinogen]: 1000 MG/KG IP DHPN 2X, 1500 MG/KG GAV EHEN 2X AND 75 MG/KG SC DMAB 3X GIVEN OVER THE INITIAL 3 WK PERIOD AT 3-4 D INTERV) 1/14 (7%), 2/12 (17%), -143%, not calculated; (N-ETHYL-N-HYDROXYETHYL- NITROSAMINE, 3,2-DIMETHYL-4-A, N-ETHYL-N-HYDROXYETHYL- NITROSAMINE, 3,2-DIMETHYL-4-A, 1% IN DIET BEGINNING 1 WK POST LAST CARCINOGEN DOSE AND CONTINUING FOR 32 WK (STUDY DURATION: 36 WK), Target Tissue: Type of Lesion: LIVER: HEPATOCELLULAR CARCINOMA, Dose [Carcinogen]: 100 MG/KG IP DHPN 2X, 1500 MG/KG GAV EHEN 2X AND 75 MG/KG SC DMAB 3X GIVEN OVER THE INITIAL 3 WK PERIOD AT 3-4 D INTERVA) 6/14 (43%), 3/12 (25%), 42%, not calculated. Besides, the “tumour outcome (control, treated, inhibition, significance)” value (N-ETHYL-N-HYDROXYETHYLNITROSAMINE, 3,2'-DIMETHYL-1,4-, N-ETHYL-N-HYDROXYETHYLNITROSAMINE, 3,2'-DIMETHYL-1,4-, 1% IN DIET FOR 4 WK BEGINNING 1 D PRIOR TO FIRST CARCINOGEN DOSE (STUDY DURATION: 36 WK), Target Tissue: Type of Lesion: KIDNEY: ADENOMA, Dose [Carcinogen]: 1000 MG/KG BW DHPN TWICE, 1500 MG/KG THEN TWICE, 75 MG/KG BW DMAB 3 TIMES, SEQUENTIALLY OVER 3 WK) is 6/10 (60%), 6/12 (50%), 17%, not significant; the “tumour outcome (control, treated, inhibition, significance)” value (N-ETHYL-N-HYDROXYETHYLNITROSAMINE, 3,2'-DIMETHYL-1,4-, N-ETHYL-N-HYDROXYETHYLNITROSAMINE, 3,2'-DIMETHYL-1,4-, 1% IN DIET FOR 4 WK BEGINNING 1 D PRIOR TO FIRST CARCINOGEN DOSE (STUDY DURATION: 36 WK), Target Tissue: Type of Lesion: LUNG: ADENOMA, Dose [Carcinogen]: 1000 MG/KG BW DHPN TWICE, 1500 MG/KG THEN TWICE, 75 MG/KG BW DMAB 3 TIMES, SEQUENTIALLY OVER 3 WK) is 5/10 (50%), 7/12 (58%), -16%, not significant; the “tumour outcome (control, treated, inhibition, significance)” value (N-ETHYL-N-HYDROXYETHYLNITROSAMINE, 3,2'-DIMETHYL-4-AMINO-, N-ETHYL-N-HYDROXYETHYLNITROSAMINE, 3,2'-DIMETHYL-4-AMINO-, 1% IN DIET FOR 32 WK BEGINNING 1 WK POST CARCINOGEN TREATMENT (STUDY DURATION: 36 WK), Target Tissue: Type of Lesion: KIDNEY: NEPHROBLASTOMA, Dose [Carcinogen]: 1000 MG/KG BW DHPN TWICE, 1500 MG/KG BW THEN TWICE, 75 MG/KG BW DMAB 3 TIMES ADMINISTERED OVER FIRST 3 WK) is given as 2/14 (14%), 0/12 (0%), 100%, not significant. Also, under “N-ETHYL-N-HYDROXYETHYL- NITROSAMINE, 3,2'-DIMETHYL-4-, N-ETHYL-N-HYDROXYETHYL- NITROSAMINE, 3,2'-DIMETHYL-4-, 1% IN DIET BEGINNING 1 WK POST LAST CARCINOGEN DOSE AND CONTINUING FOR 32 WK (STUDY DURATION: 36 WK), Target Tissue: Type of Lesion: URINARY BLADDER: PAPILLOMA, Dose [Carcinogen]: 1000 MG/KG IP DHPN 2X, 1500 MG/KG GAV EHEN 2X AND 75 MG/KG SC DMAB 3X GIVEN OVER THE INITIAL 3 WK PERIOD AT 3-4 D INTERV”, the outcome is reported as 0/14 (0%), 3/12 (25%), -100%, not calculated.
